According to patent US20260167659A1, “STING AGONISTS” (LIGACHEM BIOSCIENCES INC., priority 2022, published 2026):

Key:
hSTING-WT (R232) = target: T1, hSTING-WT (R232) (Homo sapiens, UniProt Q86WV6, H232R); experiment: STING activation, THP1-Dual IRF3 reporter assay, hSTING-R232 cells; format: cell-based; details: IRF3 luciferase reporter, 24 hours, read-out: STING activity using hSTING-R232 cells EC50
T1 construct: host or cells: THP1-Dual cells (human monocytes) with knocked-in hSTING R232
Protocol: (§1) To assess potency of STING agonist compounds described herein, THP1-Dual™ Cells (NF—KB-SEAP and IRF-Lucia luciferase reporter monocytes, InvivoGen) were used. The reporter cells were knocked-in either of hSTING-WT (R232, #thpd-r232), HAQ variant (#thpd-nfis), or H232 variant (#thpd-h232). All cells were cultured at 37° C. in a humidified incubator at 5% CO2 and maintained in RPMI 1640 medium (Gibco, #22400097) supplemented with 10% heat-inactivated FBS and 1×Pen-Strep (Gibco, #15140122). To measure STING agonist-mediated IRF3 activity, the cells (9.0×10^4 cells per well) were seeded in a flat-bottomed 96-well plate. The next day, the cells were treated with compounds in a serial dilution for 24 hours. Subsequently, 20 μL of the cell culture supernatant and 50 μL of the QUANTI-Luc™ reagent (InvivoGen, #rep-qlc) were mixed in a 96-well white plate and then, luciferase activity was measured using an EnVision Xcite multilabel reader. The data were analyzed using Prism8 software (4-parameter).
(§2) The potency of STING agonist compounds was evaluated by the activation of Type I Interferon pathway using THP-1 IRF3 reporter assay.

human STING = target: T2, human STING (Homo sapiens, UniProt Q86WV6, H232R); experiment: Direct STING binding, HUMAN STING WT BINDING KIT (Cisbio); details: direct binding to human STING WT protein in vitro; read-out: Binding potency EC50
T2 construct: purchased Cisbio 64BDSTGPEG
T2 sequence (Q86WV6 whole entry H232R): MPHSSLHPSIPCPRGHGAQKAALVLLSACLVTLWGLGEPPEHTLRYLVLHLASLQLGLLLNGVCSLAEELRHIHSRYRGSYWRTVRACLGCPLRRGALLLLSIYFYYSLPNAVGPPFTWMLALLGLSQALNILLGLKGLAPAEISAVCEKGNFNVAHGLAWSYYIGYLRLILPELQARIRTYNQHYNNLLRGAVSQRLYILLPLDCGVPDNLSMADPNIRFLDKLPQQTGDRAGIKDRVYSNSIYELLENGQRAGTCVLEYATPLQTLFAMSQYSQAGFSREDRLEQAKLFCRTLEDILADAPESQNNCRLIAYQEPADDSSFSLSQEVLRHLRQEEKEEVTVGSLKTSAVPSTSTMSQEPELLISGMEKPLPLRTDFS
Text: Additionally, for analysis of direct binding potency of STING agonist compounds described herein to human STING, HUMAN STING WT BINDING KIT (Cisbio, #64BDSTGPEG) was used according to the manufacture's instruction.

hSTING HAQ variant = target: T3, hSTING HAQ variant (Homo sapiens, UniProt Q86WV6, G230A/H232R/R293Q/R71H); experiment: STING activation, THP1-Dual IRF3 reporter assay, hSTING-HAQ cells; format: cell-based; details: IRF3 luciferase reporter, 24 hours, read-out: STING activity using hSTING-HAQ cells, HAQ EC50
T3 construct: host or cells: THP1-Dual cells (human monocytes)
T3 sequence (Q86WV6 whole entry R71H/G230A/H232R/R293Q): as the sequence (Q86WV6 whole entry H232R) above, with R71H, G230A, R293Q counted along it
Protocol: as §1, §2

hSTING H232 variant = target: T4, hSTING H232 variant (Homo sapiens, UniProt Q86WV6); experiment: STING activation, THP1-Dual IRF3 reporter assay, hSTING-H232 cells; format: cell-based; details: IRF3 luciferase reporter, 24 hours, read-out: STING activity using hSTING-H232 cells, H232 EC50
T4 construct: host or cells: THP1-Dual cells (human monocytes) with knocked-in hSTING H232
Protocol: as §1, §2

[1] = Normal cell cytotoxicity in PBMCs, CellTiter-Glo; format: cell-based; details: human, read-out: In vitro cell cytotoxicity in PBMCs CC50
Protocol: PBMCs were also purchased from […]™ (#700025.2). The cells (8.0×10^4 cells per well) were seeded in a flat-bottomed 96-well plate in RPMI 1640 medium (Gibco, #22400097) with 10% heat-inactivated FBS and 1× Antibiotic-Antimycotic (Gibco, #15240062) and rested for 24 hours at 37° C. […] After 72 hours, the cell viability was measured using CellTiter-Glo Luminescent Cell Viability Assay (Promega, #G7573) according to the manufacture's instruction. The signal was detected using an EnVision Xcite multilabel reader and data were analyzed using GraphPad Prism 8 software.
To verify the effect of the STING agonist compounds in normal cell cytotoxicity, the PBMCs were treated with the STING agonist compounds for 3 days and measured the percentage of cell death.

T1 sequence (Q86WV6 whole entry H232R): as the sequence (Q86WV6 whole entry H232R) above

SMILES	EC50 (hSTING-WT (R232)) [nM]	EC50 (human STING) [nM]	further results
CCn1nc(C)cc1C(=O)Nc1nc2cc(C(N)=O)cc(OC)c2n1C/C=C/Cn1c(NC(=O)c2cc(C)nn2CC)nc2cc(C(N)=O)cc(OCCc3ccc(NC(=O)OCc4ccc(O[C@@H]5O[C@H](C(=O)O)[C@@H](O)[C@H](O)[C@H]5O)c(C(=O)NCCOC)c4)cc3)c21 [Compound 239]	4.46		
CCn1nc(C)cc1C(=O)Nc1nc2cc(C(N)=O)cc(OC)c2n1C/C=C/Cn1c(NC(=O)c2cc(C)nn2CC)nc2cc(C(N)=O)cc(OCCc3ccc(NC(=O)OCc4ccc(O[C@@H]5O[C@H](C(=O)O)[C@@H](O)[C@H](O)[C@H]5O)c(C(=O)NCCOCCOCCN(C)C)c4)cc3)c21 [Compound 262]	6.78		
CCn1nc(C)cc1C(=O)Nc1nc2cc(C(N)=O)cc(OC)c2n1C/C=C/Cn1c(NC(=O)c2cc(C)nn2CC)nc2cc(C(N)=O)cc(OC/C=C/Cn3cc(NC(=O)OCc4ccc(O[C@@H]5O[C@H](C(=O)O)[C@@H](O)[C@H](O)[C@H]5O)c(C(=O)NCCOCCOCCOCCOCCOCC(=O)O)c4)cn3)c21 [Compound 285]	33.5	0.3	
CCn1nc(C)cc1C(=O)Nc1nc2cc(C(N)=O)cc(OC)c2n1C/C=C/Cn1c(NC(=O)c2cc(C)nn2CC)nc2cc(C(N)=O)cc(OC/C=C/Cn3cc(NC(=O)OCc4ccc(O[C@@H]5O[C@H](C(=O)O)[C@@H](O)[C@H](O)[C@H]5O)c(C(=O)NCCOCCOCCN5CCOCC5)c4)cn3)c21 [Compound 291]	8.86	0.26	
CCn1nc(C)cc1C(=O)Nc1nc2cc(C(N)=O)cc(OC/C=C/Cn3cc(NC(=O)OCc4ccc(O[C@@H]5O[C@H](C(=O)O)[C@@H](O)[C@H](O)[C@H]5O)c(C(=O)NCCOCCOCCO)c4)cn3)c2n1C/C=C/Cn1c(NC(=O)c2cc(C)nn2CC)nc2cc(C(N)=O)cc(OCCCC(=O)O)c21 [Compound 316]	88.2		EC50 (hSTING HAQ variant): 400 nM; EC50 (hSTING H232 variant): 251 nM; CC50 at 72 h [1]: 207 nM
CCn1nc(C)cc1C(=O)Nc1nc2cc(C(N)=O)cc(OC)c2n1C/C=C/Cn1c(NC(=O)c2cc(C)nn2CC)nc2cc(C(N)=O)cc(OC/C=C/Cn3cc(NC(=O)OCc4ccc(O[C@@H]5O[C@H](C(=O)O)[C@@H](O)[C@H](O)[C@H]5O)c(C(=O)NCCC(=O)NC(CC(=O)O)CC(=O)O)c4)cn3)c21 [Compound 328]	80.7	0.04	
CCn1nc(C)cc1C(=O)Nc1nc2cc(C(N)=O)cc(OC)c2n1C/C=C/Cn1c(NC(=O)c2cc(C)nn2CC)nc2cc(C(N)=O)cc(OC/C=C/CN(CCCNC(=O)OCc3ccc(O[C@@H]4O[C@H](C(=O)O)[C@@H](O)[C@H](O)[C@H]4O)c(C(=O)NCCOCCOCCN4CCOCC4)c3)C(=N)N)c21 [Compound 332]	574		
C#CCNC(=O)c1cc(COC(=O)Nc2cnn(C/C=C/COc3cc(C(N)=O)cc4nc(NC(=O)c5cc(C)nn5CC)n(C/C=C/Cn5c(NC(=O)c6cc(C)nn6CC)nc6cc(C(N)=O)cc(OC)c65)c34)c2)ccc1O[C@@H]1O[C@H](C(=O)OC)[C@@H](OC(C)=O)[C@H](OC(C)=O)[C@H]1OC(C)=O [Compound 347]	10.5		
CCn1nc(C)cc1C(=O)Nc1nc2cc(C(N)=O)cc(OC)c2n1C/C=C/Cn1c(NC(=O)c2cc(C)nn2CC)nc2cc(C(N)=O)cc(OC/C=C/Cn3cc(NC(=O)OCc4ccc(O[C@@H]5O[C@H](C(=O)O)[C@@H](O)[C@H](O)[C@H]5O)c(C(=O)NCCCn5cc(CCOP(=O)(O)O)nn5)c4)cn3)c21 [Compound 357]	50.4	0.14	
CCn1nc(C)cc1C(=O)Nc1nc2cc(C(N)=O)cc(OC/C=C/Cn3cc(NC(=O)OCc4ccc(O[C@@H]5O[C@H](C(=O)O)[C@@H](O)[C@H](O)[C@H]5O)c(C(=O)NCCOCCOCCN(C)C)c4)cn3)c2n1C/C=C/Cn1c(NC(=O)c2cc(C)nn2CC)nc2cc(C(N)=O)cc(OC/C=C/Cn3cc(NC(=O)OCc4ccc(O[C@@H]5O[C@H](C(=O)O)[C@@H](O)[C@H](O)[C@H]5O)c(C(=O)NCCOCCOCCN(C)C)c4)cn3)c21 [Compound 359]	463	0.17	
CCn1nc(C)cc1C(=O)Nc1nc2cc(C(N)=O)cc(OC/C=C/Cn3cc(NC(=O)OCc4ccc(OC5O[C@H](C(=O)O)[C@@H](O)[C@H](O)[C@H]5O)c(C(=O)NCCOCCOCCN(C)C)c4)cn3)c2n1C/C=C/Cn1c(NC(=O)c2cc(C)nn2CC)nc2cc(C(N)=O)cc(OCCCS(C)(=O)=NC(=O)OCc3ccc(O[C@@H]4O[C@H](C(=O)O)[C@@H](O)[C@H](O)[C@H]4O)c(C(=O)NCCOCCOCCN(C)C)c3)c21 (stereo partly drawn) [Compound 376]	287		
CCn1nc(C)cc1C(=O)Nc1nc2cc(C(N)=O)cc(OC)c2n1C/C=C/Cn1c(NC(=O)c2cc(C)nn2CC)nc2cc(C(N)=O)cc(OC/C=C/CN3CCN(C(=O)OCc4ccc(O[C@@H]5O[C@H](C(=O)O)[C@@H](O)[C@H](O)[C@H]5O)c(C(=O)NCCOC)c4)CC3=O)c21 [Compound 417]	24.6		

Continued, in another order:

EC50 (hSTING-WT (R232)) [nM]	EC50 (human STING) [nM]	SMILES	further results
44.4		CCn1nc(C)cc1C(=O)Nc1nc2cc(C(N)=O)cc(OC)c2n1C/C=C/Cn1c(NC(=O)c2cc(C)nn2CC)nc2cc(C(N)=O)cc(OC/C=C/Cn3cc(NCCC(=O)OC)cn3)c21 [Compound 174]	
18.8		CCn1nc(C)cc1C(=O)Nc1nc2cc(C(N)=O)cc(OC)c2n1C/C=C/Cn1c(NC(=O)c2cc(C)nn2CC)nc2cc(C(N)=O)cc(OC/C=C/Cn3cc(NC(=O)OCc4ccc(O[C@@H]5O[C@H](C(=O)O)[C@@H](O)[C@H](O)[C@H]5O)c(C(=O)NCCOC)c4)cn3)c21 [Compound 272]	
7.2	0.27	CCn1nc(C)cc1C(=O)Nc1nc2cc(C(N)=O)cc(OC)c2n1C/C=C/Cn1c(NC(=O)c2cc(C)nn2CC)nc2cc(C(N)=O)cc(OC/C=C/Cn3cc(NC(=O)OCc4ccc(O[C@@H]5O[C@H](C(=O)O)[C@@H](O)[C@H](O)[C@H]5O)c(C(=O)O)c4)cn3)c21 [Compound 299]	
5.36	0.18	CCn1nc(C)cc1C(=O)Nc1nc2cc(C(N)=O)cc(OC)c2n1C/C=C/Cn1c(NC(=O)c2cc(C)nn2CC)nc2cc(C(N)=O)cc(OC/C=C/Cn3cc(NC(=O)OCc4ccc(O[C@@H]5O[C@H](CO)[C@H](O)[C@H](O)[C@H]5O)c(C(=O)NCCOCCOCCO)c4)cn3)c21 [Compound 307]	
3.65	0.04	CCn1nc(C)cc1C(=O)Nc1nc2cc(C(N)=O)cc(OC)c2n1C/C=C/Cn1c(NC(=O)c2cc(C)nn2CC)nc2cc(C(N)=O)cc(OC/C=C/Cn3cc(NC(=O)OCc4ccc(O[C@@H]5O[C@H](CO)[C@H](O)[C@H](O)[C@H]5O)c(C(=O)NCCOC)c4)cn3)c21 [Compound 320]	
16.2	0.19	CCn1nc(C)cc1C(=O)Nc1nc2cc(C(N)=O)cc(OC)c2n1C/C=C/Cn1c(NC(=O)c2cc(C)nn2CC)nc2cc(C(N)=O)cc(OC/C=C/Cn3cc(NC(=O)OCc4ccc(O[C@@H]5O[C@H](CO)[C@H](O)[C@H](O)[C@H]5O)c(C(=O)NCCOCCOCCN(C)C)c4)cn3)c21 [Compound 337]	
7.67		CCn1nc(C)cc1C(=O)Nc1nc2cc(C(N)=O)cc(OC)c2n1C/C=C/Cn1c(NC(=O)c2cc(C)nn2CC)nc2cc(C(N)=O)cc(OC/C=C/Cn3cc(NC(=O)OCc4ccc(O[C@@H]5O[C@H](C(=O)O)[C@@H](O)[C@H](O)[C@H]5O)c(C(=O)NCCOCCOCCN=[N+]=[N-])c4)cn3)c21 [Compound 367]	
54.6		CCn1nc(C)cc1C(=O)Nc1nc2cc(C(N)=O)cc(OC)c2n1C/C=C/Cn1c(NC(=O)c2cc(C)nn2CC)nc2cc(C(N)=O)cc(OC/C=C/Cn3cc(NC(=O)OCc4ccc(O[C@@H]5O[C@H](C(=O)O)[C@@H](O)[C@H](O)[C@H]5O)c(C(=O)NCCOCCOCCN)c4)cn3)c21 [Compound 372]	
38.1		CCn1nc(C)cc1C(=O)Nc1nc2cc(C(N)=O)cc(OC)c2n1C/C=C/Cn1c(NC(=O)c2cc(C)nn2CC)nc2cc(C(N)=O)cc(OC/C=C/CN3CCCN3C(=O)OCc3ccc(O[C@@H]4O[C@H](C(=O)O)[C@@H](O)[C@H](O)[C@H]4O)c(C(=O)NCCOC)c3)c21 [Compound 419]	
